Experimental data: patent US20240398828A1, “HETERO-ATOM CONTAINING COMPOUNDS AND USES THEREOF” (Kumquat Biosciences Inc., priority 2021, published 2024)

Legend:
PTPN2 (i.e., TC-PTP) = molecular target: T1, PTPN2 (i.e., TC-PTP) (Homo sapiens, UniProt P17706); experiment: Phosphatase activity assay (DiFMUP substrate), PTPN2; type: biochemical; settings: compounds binned ≤1 uM or >1 uM
T1 sequence (P17706 1-415): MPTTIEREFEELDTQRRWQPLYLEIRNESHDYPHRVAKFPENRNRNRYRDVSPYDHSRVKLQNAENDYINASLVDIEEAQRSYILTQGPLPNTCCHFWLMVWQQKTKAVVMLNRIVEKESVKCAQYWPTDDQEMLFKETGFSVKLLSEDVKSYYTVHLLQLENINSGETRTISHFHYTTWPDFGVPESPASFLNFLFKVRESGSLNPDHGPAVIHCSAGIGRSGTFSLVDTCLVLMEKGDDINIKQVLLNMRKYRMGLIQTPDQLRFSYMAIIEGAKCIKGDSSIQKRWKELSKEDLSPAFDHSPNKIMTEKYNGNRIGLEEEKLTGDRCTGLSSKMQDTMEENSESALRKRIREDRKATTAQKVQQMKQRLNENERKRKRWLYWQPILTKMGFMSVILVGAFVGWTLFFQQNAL
How it was run: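 Read-out is continuous fluorescence of DiFMU (360 nm excitation, 450 nm emission) over about 15-30 minutes, with DiFMUP substrate at the enzyme's independently determined Km (PTPN2 approx. 45 μM final). Buffer: 50 mM HEPES pH 7.5, 150 mM NaCl, 0.5 mM EDTA, 1 mM DTT, 0.001% Tween-20, room temperature; initial rates versus 10-point dilution fitted for IC50, at least duplicate.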

PTPN1 (i.e., PTP1B) = molecular target: T2, PTPN1 (i.e., PTP1B) (Homo sapiens, UniProt P18031); experiment: Phosphatase activity assay (DiFMUP substrate), PTP1B; type: biochemical; settings: compounds binned ≤1 uM or >1 uM
T2 sequence (P18031 1-435): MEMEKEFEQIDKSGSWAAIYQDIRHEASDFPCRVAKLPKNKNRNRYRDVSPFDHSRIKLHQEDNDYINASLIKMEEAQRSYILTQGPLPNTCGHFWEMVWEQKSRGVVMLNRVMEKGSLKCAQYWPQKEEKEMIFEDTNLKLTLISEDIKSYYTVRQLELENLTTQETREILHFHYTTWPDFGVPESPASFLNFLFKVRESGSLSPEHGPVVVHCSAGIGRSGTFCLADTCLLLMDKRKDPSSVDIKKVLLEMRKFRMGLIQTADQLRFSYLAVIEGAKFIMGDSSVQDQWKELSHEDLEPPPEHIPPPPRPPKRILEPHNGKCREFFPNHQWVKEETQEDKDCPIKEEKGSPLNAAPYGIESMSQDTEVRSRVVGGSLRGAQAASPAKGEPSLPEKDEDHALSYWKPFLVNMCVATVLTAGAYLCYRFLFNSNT
How it was run: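 Enzyme (e.g. PTPN2 0.025 ng/ul) mixed about 2 min with compound at 10 serial concentrations in 50 mM HEPES pH 7.5, 150 mM NaCl, 0.5 mM EDTA, 1 mM DTT, 0.001% Tween-20 at room temperature. DiFMUP added at each enzyme's Km (about 45 μM for PTPN2). DiFMU fluorescence (ex 360/em 450 nm) followed 15-30 min; IC50 from 4-parameter fit of rates.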

| IC50 (PTPN2 (i.e., TC-PTP)) [nM] | IC50 (PTPN1 (i.e., PTP1B)) [nM] | SMILES |
| --- | --- | --- |
| ≤ 1000 | ≤ 1000 | N#C[C@H]1CC[C@@H](n2cc(-c3ccc(O)c(N4CC(=O)NS4(=O)=O)c3F)cn2)CC1 [Compound 280, (1s,4s)-4-(4-(3-(1,1-dioxido-4-oxo-1,2,5-thiadiazolidin-2-yl)-2-fluoro-4-hydroxyphenyl)-1H-pyrazol-1-yl)cyclohexane-1-carbonitrile] |
| ≤ 1000 | ≤ 1000 | O=C1CN(c2c(O)ccc(-c3cc(N4CCC5(CCN5)C4)n[nH]3)c2F)S(=O)(=O)N1 (stereo not shown) [Compound 396, 5-(3-(3-(1,6-diazaspiro[3.4]octan-6-yl)-1H-pyrazol-5-yl)-2-fluoro-6-hydroxyphenyl)-1,2,5-thiadiazolidin-3-one 1,1-dioxide] |
